Measurements published in patent US11446287B2, “Compounds and methods for EP300 or CBP modulation and indications therefor” (Opna Immuno-Oncology SA, priority 2019, dated 2022).

molecular target: T1, Recombinant human CBP containing the bromodomain (CBP-BD (1043-1159)) (Homo sapiens, UniProt Q92793); experiment: CBP Alphascreen binding assay; conditions: read-out: CREBBP (CBP) IC50
T1 construct: Recombinant human CBP bromodomain (CBP-BD (1043-1159)); made in house; host or cells: E. coli BL21-CodonPlus (DE3), modified pET vector
Method in brief: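 Buffer: 50 mM HEPES pH 7.5, 50 mM NaCl, 0.01% BSA, 0.01% Triton X-100, 2 mM DTT. The signal was normalised to plate controls and fitted with a four-parameter curve to give IC50.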

T1 sequence (Q92793 1081-1197): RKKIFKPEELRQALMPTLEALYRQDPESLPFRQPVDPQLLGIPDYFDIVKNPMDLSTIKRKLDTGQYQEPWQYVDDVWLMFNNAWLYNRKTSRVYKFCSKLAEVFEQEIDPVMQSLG

SMILES | IC50
Cc1noc(C)c1-c1cnc2c(c1)c(-c1ccc(C(=O)O)cc1OC(F)(F)F)c(C)n2C(C1CC1)C1CC1 [P-0343, 4-(1-(dicyclopropylmethyl)-5-(3,5-dimethylisoxazol-4-yl)-2-methyl-1H-pyrrolo[2,3-b]pyridin-3-yl)-3-(trifluoromethoxy)benzoic acid] | 0.0001 to 1 µM
Cc1noc(C)c1-c1ccc2c(c1)c(-c1ccc(C(=O)O)cc1OC(F)(F)F)cn2C(C1CC1)C1CC1 [P-0344, 4-(1-(dicyclopropylmethyl)-5-(3,5-dimethylisoxazol-4-yl)-1H-indol-3-yl)-3-(trifluoromethoxy)benzoic acid] | 0.0001 to 1 µM
Cc1noc(C)c1-c1cnc2c(c1)c(-c1ccc(C(=O)O)cc1OC(F)(F)F)c(C)n2-c1ncccc1C#N [P-0345, 4-(1-(3-cyanopyridin-2-yl)-5-(3,5-dimethylisoxazol-4-yl)-2-methyl-1H-pyrrolo[2,3-b]pyridin-3-yl)-3-(trifluoromethoxy)benzoic acid] | 0.0001 to 1 µM
Cc1noc(C)c1-c1cnc2c(c1)c(-c1c(Cl)cc(C(=O)O)cc1OC(F)(F)F)cn2[C@H]1CCOC1 [P-0346, (S)-3-chloro-4-(5-(3,5-dimethylisoxazol-4-yl)-1-(tetrahydrofuran-3-yl)-1H-pyrrolo[2,3-b]pyridin-3-yl)-5-(trifluoromethoxy)benzoic acid] | 0.0001 to 1 µM
Cc1noc(C)c1-c1cnc2c(c1)c(-c1ccc(C(=O)O)cc1OC1CCC1)cn2-c1cnc(N2CCC2)nc1 [P-0347, 4-(1-(2-(azetidin-1-yl)pyrimidin-5-yl)-5-(3,5-dimethylisoxazol-4-yl)-1H-pyrrolo[2,3-b]pyridin-3-yl)-3-cyclobutoxybenzoic acid] | 0.0001 to 1 µM
Cc1noc(C)c1-c1cnc2c(c1)c(-c1c(F)cc(C(=O)O)cc1OCC(F)F)cn2-c1cnc(N2CCC2)nc1 [P-0348, 4-(1-(2-(azetidin-1-yl)pyrimidin-5-yl)-5-(3,5-dimethylisoxazol-4-yl)-1H-pyrrolo[2,3-b]pyridin-3-yl)-3-(2,2-difluoroethoxy)-5-fluorobenzoic acid] | 0.0001 to 1 µM
Cc1nn(C(F)F)cc1-n1cc(-c2ccc(C(=O)O)cc2OCC(F)F)c2cc(-c3c(C)noc3C)cnc21 [P-0349, 3-(2,2-difluoroethoxy)-4-(1-(1-(difluoromethyl)-3-methyl-1H-pyrazol-4-yl)-5-(3,5-dimethylisoxazol-4-yl)-1H-pyrrolo[2,3-b]pyridin-3-yl)benzoic acid] | 0.0001 to 1 µM
Cc1noc(C)c1-c1cnc2c(c1)c(-c1ccc(C(=O)O)cc1OC1CCC1)cn2[C@H]1CCOC1 [P-0350, (S)-3-cyclobutoxy-4-(5-(3,5-dimethylisoxazol-4-yl)-1-(tetrahydrofuran-3-yl)-1H-pyrrolo[2,3-b]pyridin-3-yl)benzoic acid] | 0.0001 to 1 µM
Cc1nn(C(F)F)cc1-n1cc(-c2ccc(C(=O)O)cc2OC2CCC2)c2cc(-c3c(C)noc3C)cnc21 [P-0351, 3-cyclobutoxy-4-(1-(1-(difluoromethyl)-3-methyl-1H-pyrazol-4-yl)-5-(3,5-dimethylisoxazol-4-yl)-1H-pyrrolo[2,3-b]pyridin-3-yl)benzoic acid] | 0.0001 to 1 µM
Cc1noc(C)c1-c1cnc2c(c1)c(-c1c(Cl)cc(C(=O)O)cc1OCC(F)F)cn2-c1cnn(C(F)F)c1C [P-0352, 3-chloro-5-(2,2-difluoroethoxy)-4-(1-(1-(difluoromethyl)-5-methyl-1H-pyrazol-4-yl)-5-(3,5-dimethylisoxazol-4-yl)-1H-pyrrolo[2,3-b]pyridin-3-yl)benzoic acid] | 0.0001 to 1 µM
Cc1noc(C)c1-c1cnc2c(c1)c(-c1ccc(C(=O)O)cc1OC1CCC1)cn2-c1cnn(C(F)F)c1C [P-0353, 3-cyclobutoxy-4-(1-(1-(difluoromethyl)-5-methyl-1H-pyrazol-4-yl)-5-(3,5-dimethylisoxazol-4-yl)-1H-pyrrolo[2,3-b]pyridin-3-yl)benzoic acid] | 0.0001 to 1 µM
Cc1noc(C)c1-c1cnc2c(c1)c(-c1ccc(C(=O)O)cc1OC(C)C)cn2-c1cnn(C(F)F)c1C [P-0354, 4-(1-(1-(difluoromethyl)-5-methyl-1H-pyrazol-4-yl)-5-(3,5-dimethylisoxazol-4-yl)-1H-pyrrolo[2,3-b]pyridin-3-yl)-3-isopropoxybenzoic acid] | 0.0001 to 1 µM
Cc1noc(C)c1-c1cnc2c(c1)c(-c1c(Cl)cc(C(=O)O)cc1OC(F)(F)F)cn2C1CCOCC1 [P-0355, 3-chloro-4-(5-(3,5-dimethylisoxazol-4-yl)-1-(tetrahydro-2H-pyran-4-yl)-1H-pyrrolo[2,3-b]pyridin-3-yl)-5-(trifluoromethoxy)benzoic acid] | 0.0001 to 1 µM
Cc1noc(C)c1-c1cnc2c(c1)c(-c1c(Cl)cc(C(=O)O)cc1OC1CCC1)cn2C(C1CC1)C1CC1 [P-0356, 3-chloro-5-cyclobutoxy-4-(1-(dicyclopropylmethyl)-5-(3,5-dimethylisoxazol-4-yl)-1H-pyrrolo[2,3-b]pyridin-3-yl)benzoic acid] | 0.0001 to 1 µM
Cc1noc(C)c1-c1cnc2c(c1)c(-c1ccc(C(=O)O)cc1OC(C)C)cn2C1CCOCC1 [P-0357, 4-(5-(3,5-dimethylisoxazol-4-yl)-1-(tetrahydro-2H-pyran-4-yl)-1H-pyrrolo[2,3-b]pyridin-3-yl)-3-isopropoxybenzoic acid] | 0.0001 to 1 µM
Cc1noc(C)c1-c1cnc2c(c1)c(-c1c(Cl)cc(C(=O)O)cc1OC1CCC1)cn2C1CCOCC1 [P-0358, 3-chloro-5-cyclobutoxy-4-(5-(3,5-dimethylisoxazol-4-yl)-1-(tetrahydro-2H-pyran-4-yl)-1H-pyrrolo[2,3-b]pyridin-3-yl)benzoic acid] | 0.0001 to 1 µM
Cc1noc(C)c1-c1cnc2c(c1)c(-c1c(Cl)cc(C(=O)O)cc1OCC(F)F)cn2C1CCOCC1 [P-0359, 3-chloro-5-(2,2-difluoroethoxy)-4-(5-(3,5-dimethylisoxazol-4-yl)-1-(tetrahydro-2H-pyran-4-yl)-1H-pyrrolo[2,3-b]pyridin-3-yl)benzoic acid] | 0.0001 to 1 µM
CCOc1cc(C(=O)O)c(F)cc1-c1cn([C@H]2CCOC2)c2ncc(-c3c(C)noc3C)cc12 [P-0360, (S)-4-(5-(3,5-dimethylisoxazol-4-yl)-1-(tetrahydrofuran-3-yl)-1H-pyrrolo[2,3-b]pyridin-3-yl)-5-ethoxy-2-fluorobenzoic acid] | 0.0001 to 1 µM
Cc1noc(C)c1-c1cnc2c(c1)c(-c1c(Cl)cc(C(=O)O)cc1OC1CCC1)cn2[C@H]1CCOC1 [P-0361, (S)-3-chloro-5-cyclobutoxy-4-(5-(3,5-dimethylisoxazol-4-yl)-1-(tetrahydrofuran-3-yl)-1H-pyrrolo[2,3-b]pyridin-3-yl)benzoic acid] | 0.0001 to 1 µM
COc1cc(C(=O)O)ncc1-c1cn(C2CCOCC2)c2ncc(-c3c(C)noc3C)cc12 [P-0362, 5-(5-(3,5-dimethylisoxazol-4-yl)-1-(tetrahydro-2H-pyran-4-yl)-1H-pyrrolo[2,3-b]pyridin-3-yl)-4-methoxypicolinic acid] | 0.0001 to 1 µM
Cc1noc(C)c1-c1cnc2c(c1)c(-c1c(Cl)cc(C(=O)O)cc1OC1CC1)cn2C(C1CC1)C1CC1 [P-0363, 3-chloro-5-cyclopropoxy-4-(1-(dicyclopropylmethyl)-5-(3,5-dimethylisoxazol-4-yl)-1H-pyrrolo[2,3-b]pyridin-3-yl)benzoic acid] | 0.0001 to 1 µM
Cc1noc(C)c1-c1cnc2c(c1)c(-c1ccc(C(=O)O)cc1OC(F)(F)F)cn2CC1(C#N)CCC1 [P-0364, 4-(1-((1-cyanocyclobutyl)methyl)-5-(3,5-dimethylisoxazol-4-yl)-1H-pyrrolo[2,3-b]pyridin-3-yl)-3-(trifluoromethoxy)benzoic acid] | 0.0001 to 1 µM
Cc1nn(CC(C)(C)O)cc1-n1cc(-c2ccc(C(=O)O)cc2OC(F)(F)F)c2cc(-c3c(C)noc3C)cnc21 [P-0365, 4-(5-(3,5-dimethylisoxazol-4-yl)-1-(1-(2-hydroxy-2-methylpropyl)-3-methyl-1H-pyrazol-4-yl)-1H-pyrrolo[2,3-b]pyridin-3-yl)-3-(trifluoromethoxy)benzoic acid] | 0.0001 to 1 µM
Cc1nn(CC(=O)N(C)C)cc1-n1cc(-c2ccc(C(=O)O)cc2OC(F)(F)F)c2cc(-c3c(C)noc3C)cnc21 [P-0366, 4-(1-(1-(2-(dimethylamino)-2-oxoethyl)-3-methyl-1H-pyrazol-4-yl)-5-(3,5-dimethylisoxazol-4-yl)-1H-pyrrolo[2,3-b]pyridin-3-yl)-3-(trifluoromethoxy)benzoic acid] | 0.0001 to 1 µM
Cc1cc(C(=O)O)cc(OCC(F)F)c1-c1cn(C2CCOCC2)c2ncc(-c3c(C)noc3C)cc12 [P-0367, 3-(2,2-difluoroethoxy)-4-(5-(3,5-dimethylisoxazol-4-yl)-1-(tetrahydro-2H-pyran-4-yl)-1H-pyrrolo[2,3-b]pyridin-3-yl)-5-methylbenzoic acid] | 0.0001 to 1 µM
COc1nc(C(=O)O)ccc1-c1cn(C2CCOCC2)c2ncc(-c3c(C)noc3C)cc12 [P-0368, 5-(5-(3,5-dimethylisoxazol-4-yl)-1-(tetrahydro-2H-pyran-4-yl)-1H-pyrrolo[2,3-b]pyridin-3-yl)-6-methoxypicolinic acid] | 0.0001 to 1 µM
Cc1noc(C)c1-c1cnc2c(c1)c(-c1c(F)cc(C(=O)O)cc1OC(C)C)cn2C(C1CC1)C1CC1 [P-0369, 4-(1-(dicyclopropylmethyl)-5-(3,5-dimethylisoxazol-4-yl)-1H-pyrrolo[2,3-b]pyridin-3-yl)-3-fluoro-5-isopropoxybenzoic acid] | 0.0001 to 1 µM
CCOc1cc(C(=O)O)cc(Cl)c1-c1cn(C(C2CC2)C2CC2)c2ncc(-c3c(C)noc3C)cc12 [P-0370, 3-chloro-4-(1-(dicyclopropylmethyl)-5-(3,5-dimethylisoxazol-4-yl)-1H-pyrrolo[2,3-b]pyridin-3-yl)-5-ethoxybenzoic acid] | 0.0001 to 1 µM
CCOc1cc(C(=O)O)cc(Cl)c1-c1cn(C2CCOCC2)c2ncc(-c3c(C)noc3C)cc12 [P-0371, 3-chloro-4-(5-(3,5-dimethylisoxazol-4-yl)-1-(tetrahydro-2H-pyran-4-yl)-1H-pyrrolo[2,3-b]pyridin-3-yl)-5-ethoxybenzoic acid] | 0.0001 to 1 µM
